Measurements: US5877202A, “Indole derivatives useful to treat estrogen-related neoplasms and disorders” (priority 1996, dated 1999)

Tests used:
estrogen receptor mRNA = assay: Reduction of estrogen receptor mRNA levels in treated MCF-7 human breast tumor cells; format: cell-based;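 as to Estrogen Receptor mRNA band intensity: Phosphoimager intensity of radioactive mRNA bands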
Description: After treatment with 30 μM drug for 24 hr, total RNA is isolated according to the guanidinium isothiocyanate method using an RNA preparation kit from 5 Prime-3 Prime, Inc., following the manufacturer's instructions. The RNA is separated by formaldehyde gel electrophoresis and transferred to a nylon membrane.

[1] = tested on: tamoxifen-resistant LY-2 cells; assay: Inhibition of growth of tamoxifen-resistant LY-2 cells; format: cell-based; conditions: medium with 0.001 mg/ml insulin
MCF-7 tumors = assay: Inhibition of growth of MCF-7 tumors implanted in nu/nu mice; format: in vivo, female nu/nu mice; conditions: for tumor volume: n = 5, in mm³

CCCCN(C)C(=O)CCCCCCCNC(=O)Cc1c(C)n(C(=O)c2ccc(Cl)cc2)c2ccc(O)cc12 [MDL 101,906, 8-[[5-Hydroxy-1-(4-chlorobenzoyl)-2-methyl-1H-indol-3-yl]-acetylamino]-octanoic acid methyl-butyl-amide]
ER/GAPDH mean (estrogen receptor mRNA; 30 μM, 24 hr, mean of replicates 1 and 2): 0.53 | ER/GAPDH (estrogen receptor mRNA; 30 μM, 24 hr, replicate 1): 0.98 | Estrogen Receptor mRNA band intensity (estrogen receptor mRNA; 30 μM, 24 hr, replicate 1): 5,142 | ER/GAPDH (estrogen receptor mRNA; 30 μM, 24 hr, replicate 2): 0.38 | Estrogen Receptor mRNA band intensity (estrogen receptor mRNA; 30 μM, 24 hr, replicate 2): 1,916 | activity at 30 µM (estrogen receptor mRNA; Homo sapiens, MCF7, 24 h, read-out: ER/GAPDH % Control): 18% | IC50 [1]: 4.7 µM | tumor volume (MCF-7 tumors; 10 mg/kg i.p., day 14 after tumor implantation): 49 ± 18 | tumor volume (MCF-7 tumors; 10 mg/kg i.p., day 22 after tumor implantation): 111 ± 36 | tumor volume (MCF-7 tumors; 10 mg/kg i.p., day 29 after tumor implantation): 155 ± 43 | tumor volume (MCF-7 tumors; 10 mg/kg i.p., day 36 after tumor implantation): 255 ± 70 | tumor volume (MCF-7 tumors; 20 mg/kg i.p., day 14 after tumor implantation): 58 ± 9 | tumor volume (MCF-7 tumors; 20 mg/kg i.p., day 22 after tumor implantation): 140 ± 16 | tumor volume (MCF-7 tumors; 20 mg/kg i.p., day 29 after tumor implantation): 197 ± 30 | tumor volume (MCF-7 tumors; 20 mg/kg i.p., day 36 after tumor implantation): 282 ± 38 | tumor volume (MCF-7 tumors; 50 mg/kg i.p., day 14 after tumor implantation): 77 ± 14 | tumor volume (MCF-7 tumors; 50 mg/kg i.p., day 22 after tumor implantation): 143 ± 13 | tumor volume (MCF-7 tumors; 50 mg/kg i.p., day 29 after tumor implantation): 178 ± 53 | tumor volume (MCF-7 tumors; 50 mg/kg i.p., day 36 after tumor implantation): 291 ± 79 | tumor volume (MCF-7 tumors; 100 mg/kg i.p., day 14 after tumor implantation): 56 ± 10 | tumor volume (MCF-7 tumors; 100 mg/kg i.p., day 22 after tumor implantation): 81 ± 16 | tumor volume (MCF-7 tumors; 100 mg/kg i.p., day 29 after tumor implantation): 110 ± 24 | tumor volume (MCF-7 tumors; 100 mg/kg i.p., day 36 after tumor implantation): 170 ± 41 | tumor volume over time, dose dependence (MCF-7 tumors; 10 to 100 mg/kg i.p.): dose-dependent decrease in the tumor volume over time | decrease in tumor volume over control (MCF-7 tumors; highest dose (100 mg/kg), 36 days after tumor implantation): 55% | size of the tumors compared to control mice (MCF-7 tumors; intraperitoneal injections, suspension in 20% DMSO/water): reduced the size of the tumors compared to control mice
